The assay has as its system 3T3-L1 cells. As to the kind of experiment: Adipocyte differentiation (fat accumulation) measurement by Oil Red-O staining. It counts as cell-based, mouse. The note with it: for adipocyte differentiation inhibitory activity depending on the treatment concentration: 3T3-L1 cells, Oil Red O staining; for inhibition at 20 µg/mL: Mus musculus, 20 μg/ml, the highest concentration in the experiment, 3T3-L1 differentiation, Oil Red O, read-out: effect of inhibiting adipogenesis. The method, then: 3T3-L1 cells, a mouse-derived preadipocyte, were purchased from the Korean Cell Line Bank and used. 3T3-L1 cells were cultured in a 37° C.-wet CO2 incubator (5% CO2/95% air) using a cell culture medium (complete DMEM culture medium) in which 10% bovine calf serum (BCF), 100 units/mL penicillin, and 100 μg/mL streptomycin were added to a DMEM medium (Welgene). When the cells were 80% full of the culture dish, the cell monolayer was washed with phosphate buffer saline (PBS, pH 7.4), and then the cells were detached by adding trypsin-2.65 mM EDTA and subcultured, and the medium was exchanged every 2 days.
3T3-L1 cells were seeded onto 24-well plate at a concentration of 1×10^5 cells/well. After the cells reached the confluence state, the cell culture medium was sequentially exchanged with three kinds of differentiation-inducing cultures (DM), and the cells were cultured to induce differentiation into adipocytes. That is, the cell culture medium was exchanged with a differentiation-inducing culture medium in which DMI (1 μM dexamethasone, 0.5 mM 3-isobutyl-1-methylxanthine (IBMX), […]) was added to a DMEM medium containing 10% FBS to stimulate differentiation for 2 days. After 2 days, the cells were exchanged for a new differentiation-inducing culture medium in which 5 μg/mL insulin was added to DMEM medium containing 10% FBS to stimulate differentiation for another 2 days. After stimulating differentiation for a total of 4 days, cells were maintained in DMEM medium containing 10% FBS for 2 days to induce differentiation into adipocytes.
In order to investigate the effect of the test substance on adipocyte differentiation, the test substance was added to the differentiation-inducing culture medium and treated on the cells.
After treatment with the test substance while inducing differentiation of 3T3-L1 cells, the cells were rinsed with DPBS (Welgene), and then the cells were fixed at room temperature for 1 hour by adding 4% paraformaldehyde (PFA, Biosesang). After the cells were fixed, the cells were treated with oil red O (Sigma-Aldrich) solution and stained at room temperature for 1 to 2 hours. After observing the staining degree of adipocytes visually, the cells were rinsed with distilled water and observed for adipocytes through a microscope.

Take `O=C1c2c(O)cc(O)cc2O[C@H](c2ccc(O)c(O)c2)[C@H]1OC1OC[C@@H](O)[C@@H](O)[C@@H]1O` (stereo partly drawn) [Taxifolin-3-O-arabinopyranoside, taxifolin-3-O-α-L-arabinopyranoside]: the “adipocyte differentiation inhibitory activity depending on the treatment concentration” value is “increases in a concentration-dependent manner” and the inhibition at 20 µg/mL was at least 40%.
Regarding `O=C1c2c(O)cc(O)cc2O[C@H](c2ccc(O)c(O)c2)[C@H]1O` [Taxifolin-aglycone, taxifolin], the “adipocyte differentiation inhibitory activity depending on the treatment concentration” value is reported as “increases in a concentration-dependent manner” and the inhibition at 20 µg/mL is at least 40%.

Values taken from patent publication US20250352595A1, “PHARMACEUTICAL, FOOD, OR FEED COMPOSITION FOR PREVENTING OR TREATING MUSCLE LOSS CONTAINING RHODODENDRON MUCRONULATUM EXTRACT” (DR. OREGONIN INC., priority 2022, published 2025).
